Patent publication US20240148648A1, “SUSTAINED RELEASE THERMOSETTING GELS COMPRISING ANESTHETIC DRUGS AND THE METHODS OF MAKING THE SAME” (Pacira Therapeutics, Inc., priority 2021, published 2024)
Converted amounts (≈) assume the structure as drawn.

Experiments:
[1] = Rheological analysis of hydrogel formulations (CGT, onset temperature, max G′); type: physicochemical; details: compared to the vehicle
Source text: PEG 400 was used as a co-solvent to further enhance solubility of the active in aqueous media and to decrease the gelation temperature to be close to but below body temperature. Rheological properties including critical gelation temperature (CGT), onset temperature, and elastic (G′) and viscous (G″) moduli were used in conjunction with visual and IVR experiments to analyze the impact of different formulation component compositions and concentrations on the suitability of the formulation in an extended-release postsurgical pain management indication. […] The onset temperature refers to the temperature at which the viscous moduli begins to increase in rheometry.

physchem = details: for solubility: organic solvent or mixture
Method: In order to determine a suitable solvent, the solubility of all three APIs were determined in dimethyl sulfoxide, ethyl acetate, methylene chloride (DCM), benzyl alcohol, and dimethylacetamide (DMA).

[2] = In vitro release (IVR) at 37° C. in surfactant-containing media; type: physicochemical; details: cumulative drug release in vitro
Method: The formulations that transitioned only to a viscous liquid (and not an opaque depot) also dissolved with the addition of media in in vitro release (IVR) studies. Such formulations were not further characterized for IVR profile. IVR was conducted by placing an aliquot of formulation into a 50 mL conical tube placed in a 37° C. water bath on a shaker. The formulation was left to gel before surfactant-containing media was slowly added as not to disturb any formed depot.

CCCCN1CCCCC1C(=O)Nc1c(C)cccc1C (stereo not drawn) [bupivacaine, 1-butyl-N-(2,6-dimethylphenyl)piperidine-2-carboxamide]
Impact of drug on gelation properties of the formulation [1]: slight impact on the onset temperatures | Solubility in DCM (physchem): solubilized bupivacaine but did not maintain adequate drug solubility when mixed with the polymer system | solubility (physchem): 200 mg/mL (≈ 693 mM)

CCCN1CCCC[C@H]1C(=O)Nc1c(C)cccc1C [ropivacaine, (2S)—N-(2,6-dimethylphenyl)-1-propylpiperidine-2-carboxamide]
Impact of drug on gelation properties of the formulation [1]: slight decrease on the onset temperatures and max G′ values | solubility (physchem): 80 mg/mL (≈ 292 mM)

CCN(CC)CC(=O)Nc1c(C)cccc1C [lidocaine, 2-(diethylamino)-N-(2,6-dimethylphenyl)acetamide]
In vitro release profile (in words) [2]: faster drug release
